Several values for one entry are separate records, joined by “and”; a condition that tells them apart may be missing. Equal values may be shown once. Read-outs that look alike come from different tables or passages of the source.
What was measured:
[1] = tested on: A549/ATCC; assay: NCI-60 SRB screen
[2] = tested on: HCT-116; assay: cells; settings: Homo sapiens, HCT-116, 48 h
[3] = tested on: OVCAR-5; assay: NCI-60 SRB screen; settings: for growth GP: OVCAR-5, 10 μM, 48 h; for TGI / GI50: OVCAR-5, 48 h
[4] = tested on: HCT-116; settings: HCT-116, 48 h
[5] = tested on: MOLT-4; assay: cells; settings: Homo sapiens, MOLT-4, 48 h
[6] = tested on: SK-OV-3
[7] = tested on: IGROV1; assay: NCI-60 SRB screen
[8] = tested on: LOX IMVI; assay: cells; settings: Homo sapiens, 48 h; for CC50: read-out: LC50, LOX IMVI, 48 h
[9] = tested on: HL-60(TB); assay: NCI-60 SRB screen
[10] = tested on: panel of 60 cancer cell lines; assay: cells; settings: Homo sapiens, read-out: MG_MID GI50
[11] = tested on: CAKI-1; assay: cells; settings: Homo sapiens, CAKI-1, 48 h
[12] = tested on: MOLT-4; settings: MOLT-4, 48 h
[13] = tested on: Non-small cell lung cancer; settings: Non-small cell lung cancer subpanel
[14] = tested on: SF-268
[15] = tested on: PC-3; assay: cells; settings: Homo sapiens, PC-3, 48 h
[16] = tested on: Melanoma; assay: cells; settings: Homo sapiens; for GI50: read-out: MG_MID GI50; for CC50: read-out: MG_MID LC50
[17] = tested on: OVCAR-8; assay: cells; settings: Homo sapiens, OVCAR-8, 48 h
[18] = tested on: A498; assay: cells; settings: Homo sapiens, A498, 48 h
[19] = tested on: MDA-MB-231/ATCC; settings: 10 μM, 48 h
[20] = tested on: OVCAR-4; assay: cells; settings: Homo sapiens, OVCAR-4, 48 h; for CC50: read-out: LC50, OVCAR-4, 48 h
[21] = tested on: SF-295; assay: NCI-60 SRB screen; settings: SF-295, 48 h; for CC50: read-out: LC50, SF-295, 48 h
[22] = tested on: Ovarian cancer; assay: cells; settings: Homo sapiens; for GI50: read-out: MG_MID GI50; for CC50: read-out: MG_MID LC50
[23] = tested on: TK-10; assay: cells; settings: Homo sapiens, TK-10, 48 h; for CC50: read-out: LC50, TK-10, 48 h
[24] = tested on: Prostate Cancer; settings: Prostate Cancer subpanel
[25] = tested on: DU-145; assay: cells; settings: Homo sapiens, DU-145, 48 h; for CC50: read-out: LC50, DU-145, 48 h
[26] = tested on: HT29; settings: HT29, 48 h
[27] = tested on: NCI/ADR-RES; assay: cells; settings: Homo sapiens, 48 h
[28] = tested on: SW-620; assay: NCI-60 SRB screen; settings: SW-620, 48 h
[29] = tested on: MDA-MB-468; assay: NCI-60 SRB screen; settings: MDA-MB-468, 48 h
[30] = tested on: OVCAR-3; assay: cells; settings: Homo sapiens, OVCAR-3, 48 h
[31] = tested on: HOP-92; assay: NCI-60 SRB screen; settings: HOP-92, 48 h
[32] = tested on: RPMI-8226; settings: RPMI-8226, 48 h
[33] = tested on: 786-0; settings: 786-0, 48 h
[34] = tested on: MDA-MB-435
[35] = tested on: COLO 205
[36] = tested on: UO-31
[37] = tested on: M14; assay: NCI-60 SRB screen; settings: Homo sapiens, M14, 48 h, read-out: LC50, M14, 48 h
[38] = tested on: SR; settings: 48 h
[39] = tested on: UO-31; assay: cells; settings: Homo sapiens, UO-31, 48 h
[40] = tested on: KM12; assay: NCI-60 SRB screen; settings: KM12, 48 h
[41] = Homo sapiens, IGROV-1, 48 h, read-out: LC50, IGROV1, 48 h
[42] = Homo sapiens, read-out: LC50, HOP-92, 48 h

## O=C(O)CCCN1C(=O)/C(=C/C=C/c2ccc([N+](=O)[O-])o2)SC1=S [13b, 4-((Z)-5-((E)-3-(5-Nitrofuran-2-yl)allylidene)-4-oxo-2-thioxothiazolidin-3-yl)butanoic acid]
[1]; 48 h
  GI50: 0.78 µM
[1]; Homo sapiens, A549, 48 h
  GI50: 1.36 µM
[2]
  GI50: 0.31 µM
[3]
  growth GP: -97.64%
  TGI: 3.32 µM and 2.02 µM
[4]
  GI50: 0.17 µM
  TGI: 1.15 µM and 0.64 µM
[5]
  GI50: 0.41 µM
[5]; read-out: LC50, MOLT-4, 48 h
  CC50: 8.99 µM
[6]; SK-OV-3, 48 h
  GI50: 2.18 µM
  TGI: 7.44 µM and 13.1 µM
[6]; human, 48 h
  CC50: 39.4 µM
[7]; [41]
  CC50: 5.14 µM
[8]
  GI50: 0.19 µM
  CC50: 0.92 µM
[9]; Homo sapiens, HL-60, 48 h, read-out: LC50, HL-60(TB), 48 h
  CC50: > 100 µM
[10]
  GI50: 1.61 µM
[11]
  GI50: 0.67 µM
[12]
  GI50: 0.29 µM
  TGI: 1.86 µM and 1.16 µM
[13]
  MG_MID TGI: 4.48 µM
[14]; SF-268, 48 h
  TGI: 2.84 µM and 2.89 µM
[15]
  GI50: 0.62 µM
[16]
  GI50: 0.59 µM
  CC50: 3.6 µM
[17]
  GI50: 0.46 µM
[18]
  GI50: 4.13 µM
[19]
  growth GP: -95.61%
[20]
  GI50: 1.16 µM
  CC50: 5.75 µM
[21]; Homo sapiens
  CC50: 6.31 µM
[21]
  TGI: 3.24 µM and 2.07 µM
[22]
  GI50: 0.96 µM
  CC50: 13.2 µM
[23]
  CC50: 5.84 µM
[24]
  MG_MID TGI: 2.57 µM
[25]
  GI50: 1.09 µM
  CC50: 4.92 µM
[26]
  GI50: 0.26 µM
[27]
  GI50: 0.29 µM
[28]; Homo sapiens
  GI50: 0.24 µM
[28]
  GI50: 0.28 µM
  TGI: 0.54 µM and 0.83 µM
[29]; Homo sapiens
  GI50: 0.33 µM
[29]
  GI50: 0.17 µM
[30]
  GI50: 0.77 µM
[31]; [42]
  CC50: 6.33 µM
[31]; read-out: LC50
  CC50: 4.24 µM
[32]
  TGI: 1.58 µM
[33]
  GI50: 0.28 µM
  TGI: 1.30 µM and 0.90 µM

## O=C(O)CCCCCN1C(=O)/C(=C/C=C/c2ccc([N+](=O)[O-])o2)SC1=S [14b, 6-((Z)-5-((E)-3-(5-nitrofuran-2-yl)allylidene)-4-oxo-2-thioxothiazolidin-3-yl)hexanoic acid]
[1]; 48 h
  GI50: 2.38 µM
[1]; Homo sapiens, A549, 48 h
  GI50: 1.62 µM
[2]
  GI50: 0.31 µM
[3]; Homo sapiens
  GI50: 1.85 µM
[3]
  growth GP: -96.01%
  GI50: 1.56 µM
  TGI: 3.31 µM and 2.97 µM
[4]
  GI50: 0.2 µM
[5]
  GI50: 0.37 µM
[6]; SK-OV-3, 48 h
  GI50: 2.98 µM
[7]; [41]
  CC50: 5.01 µM
[7]; read-out: LC50, IGROV1, 48 h
  CC50: 2.67 µM
[8]
  GI50: 0.2 µM
  CC50: 0.88 µM
[9]; HL-60(TB), 48 h
  GI50: 1.11 µM
  TGI: 3.32 µM and 2.81 µM
[9]; Homo sapiens, HL-60, 48 h, HL-60(TB), 48 h
  GI50: 0.75 µM
[10]
  GI50: 1.1 µM
[11]
  GI50: 0.83 µM
[34]; MDA-MB-435, 48 h
  GI50: 0.28 µM
[34]; human, 48 h
  CC50: 2.74 µM
[12]
  GI50: 0.31 µM
  TGI: 1.50 µM and 1.21 µM
[35]; COLO 205, 48 h
  GI50: 0.97 µM
  TGI: 3.08 µM and 2.35 µM
[35]; human, 48 h
  CC50: 5.61 µM
[13]
  MG_MID TGI: 3.85 µM
[14]; SF-268, 48 h
  GI50: 1.32 µM
  TGI: 2.71 µM and 3.63 µM
[14]; human, 48 h
  CC50: 9.99 µM
[16]
  GI50: 0.76 µM
  CC50: 4.4 µM
[17]
  GI50: 0.57 µM
[17]; read-out: LC50, OVCAR-8, 48 h
  CC50: 6.43 µM
[36]; UO-31, 48 h
  GI50: 0.67 µM
  TGI: 1.85 µM and 2.05 µM
[36]; human, 48 h
  CC50: 4.89 µM
[18]
  GI50: 8.13 µM
[19]
  growth GP: -99.86%
[20]
  GI50: 1.31 µM
  CC50: 5.41 µM
[21]; Homo sapiens
  GI50: 1.91 µM
  CC50: 8.72 µM
[21]
  GI50: 1.7 µM
  TGI: 4.08 µM and 3.36 µM
[22]
  GI50: 1.11 µM
  CC50: 15.6 µM
[23]
  GI50: 1.88 µM
  CC50: 5.84 µM
[24]
  MG_MID TGI: 3.13 µM
[25]
  GI50: 1.52 µM
  CC50: 5.44 µM
[37]
  CC50: 5.56 µM
[26]
  GI50: 1.13 µM
  TGI: 2.71 µM and 3.39 µM
[38]
  TGI: 0.96 µM
[27]
  GI50: 0.45 µM
[28]; Homo sapiens
  GI50: 0.23 µM
[28]
  GI50: 0.24 µM
  TGI: 0.57 µM and 0.61 µM
[29]; Homo sapiens, read-out: LC50, MDA-MB-468, 48 h
  CC50: 5.27 µM
[30]
  GI50: 1.12 µM
[39]
  GI50: 0.52 µM
[39]; read-out: LC50, UO-31, 48 h
  CC50: 4.31 µM
[31]
  GI50: 1.05 µM
  TGI: 3.34 µM and 2.48 µM
[31]; Homo sapiens
  GI50: 1.74 µM
[31]; [42]
  CC50: 6.41 µM
[40]; Homo sapiens
  GI50: 1.42 µM
[40]
  GI50: 1.19 µM
  TGI: 2.83 µM and 2.67 µM
[32]
  TGI: 1.32 µM
[33]
  GI50: 0.32 µM
  TGI: 2.06 µM and 1.23 µM

From publication PMC12655351, “Synthesis and Anticancer Activity Evaluation of New 5-((5-Nitrofuran-2-yl)allylidene)-2-thioxo-4-thiazolidinones” (Pharmaceuticals, 2025)
